What was measured:
[1] = Cytotoxicity against human washed-platelet assessed as LDH release after 5 mins by sonication method; format: cell-based
Platelet [2] = assay: Induction of human washed-platelet aggregation at 20 ug/test tube after 1 min by light transmission aggregometer; format: functional
Platelet [3] = assay: Induction of human washed-platelet aggregation at 232 ug/test tube after 1 min by light transmission aggregometer; format: functional
Platelet [4] = assay: Induction of human washed-platelet aggregation at 20 ug/test tube after 4 mins by light transmission aggregometer; format: functional
Platelet [5] = assay: Induction of human washed-platelet aggregation at 232 ug/test tube after 4 mins by light transmission aggregometer; format: functional
Platelet [6] = assay: Induction of human washed-platelet aggregation at 273 ug/test tube after 1 min by light transmission aggregometer; format: functional
Platelet [7] = assay: Induction of human washed-platelet aggregation at 273 ug/test tube after 4 mins by light transmission aggregometer; format: functional
Platelet [8] = assay: Induction of human washed-platelet aggregation at 82 ug/test tube after 1 min by light transmission aggregometer; format: functional
Platelet [9] = assay: Induction of human washed-platelet aggregation at 82 ug/test tube after 4 mins by light transmission aggregometer; format: functional
Platelet [10] = assay: Induction of human washed-platelet aggregation at 85 ug/test tube after 4 mins by light transmission aggregometer; format: functional
Platelet [11] = assay: Induction of human washed-platelet aggregation at 85 ug/test tube after 1 min by light transmission aggregometer; format: functional

CO[C@@H]1[C@@H](O)[C@H](O[C@H]2CC[C@@]3(C)[C@@H](CC[C@@H]4[C@@H]3CC[C@]3(C)[C@@H](C(C)=O)[C@H](O)[C@@H](O)[C@]43O)C2)O[C@H](C)[C@H]1O[C@@H]1C[C@@H](O)[C@@H](O[C@@H]2C[C@H](OC)[C@@H](O[C@H]3C[C@@H](OC)[C@H](O)[C@@H](C)O3)[C@H](C)O2)[C@H](C)O1
Activity [1]: <= 3.8%
Activity (Platelet [2]): 12.5%
Activity (Platelet [3]): 18.3%
Activity (Platelet [4]): 12.5%
Activity (Platelet [5]): 54.5%

CO[C@@H]1[C@@H](O)[C@H](O[C@H]2CC[C@@]3(C)[C@@H](CC[C@@H]4[C@@H]3CC[C@]3(C)[C@@H](C(C)=O)[C@H](O)[C@@H](O)[C@]43O)C2)O[C@H](C)[C@H]1O[C@@H]1C[C@@H](O)[C@@H](O[C@@H]2C[C@H](OC)[C@@H](O[C@H]3C[C@@H](OC)[C@H](O[C@@H]4O[C@H](CO)[C@@H](O)[C@H](O)[C@H]4O)[C@@H](C)O3)[C@H](C)O2)[C@H](C)O1
Activity [1]: <= 3.8%
Activity (Platelet [2]): 5.3%
Activity (Platelet [6]): 14.1%
Activity (Platelet [4]): 9.4%
Activity (Platelet [7]): 42.3%

COC1=C[C@]23CCN(C)[C@H](Cc4cc(OC)c(O)cc42)C3=CC1=O [FLAVINANTINE]
Activity [1]: <= 3.8%
Activity (Platelet [2]): 2.1%
Activity (Platelet [8]): 6.3%
Activity (Platelet [4]): 3.5%
Activity (Platelet [9]): 17.5%

COC1=C[C@]23CCN(C)[C@H](Cc4cc(OC)c(OC)cc42)C3=CC1=O [O-METHYLFLAVINANTINE]
Activity (Platelet [10]): 8.8%
Activity [1]: <= 3.8%
Activity (Platelet [2]): 0%
Activity (Platelet [11]): 3.1%
Activity (Platelet [4]): 0%
